The target of one assay is T1, MMP9 (Rattus norvegicus, UniProt P50282).
T1 construct: Pro and active MMP9 were abundantly present in ankles of SCW-induced vehicle-treated rats; from tissue; host or cells: ankle (tibia-tarsus joint) homogenate, female Lewis rats
Put plainly: Western blot of pro and active MMP9 in ankles of rats with SCW-induced arthritis. The class given is in vivo. To be noted: Day 26, four hours after AM dose; for Abundance of proMMP9 in ankles: mAb-L51/82, FIG. 3A. On the procedure: Hind-limbs were skinned, severed just above the tibia-tarsus joint and below the metatarsals, and the tibia-tarsus joints (ankles) were weighed, snap frozen and pulverized on dry ice using a hammer and anvil. The pulverized tissue was suspended in 3 volumes (w:v) of ice-cold homogenization buffer containing 50 mM Tris pH 7.5, 150 mM NaCl, 5 mM EDTA, 1% Triton X100, 0.05% Brij 30, 10% dimethylsulfoxide and Complete EDTA-free Protease Inhibitor Cocktail (Roche Diagnostics). The suspended tissue was homogenized sequentially with a Kinematica AG Polytron and a Dounce homogenizer. Homogenates were centrifuged at 16,000×g for 10 min at 4° C. and the soluble fractions were saved. Dimethylsulfoxide was removed from a portion of each soluble fraction using PD MiniTrap™ G-25 desalting columns (GE Healthcare). Homogenates (0.25 mL), free of DMSO, were diluted with an equal volume of binding buffer (i.e., homogenization buffer without dimethylsufoxide) and adjusted to contain 50 μL of a 50% slurry of gelatin-conjugated sepharose. Following 2 hours of rotation at 4° C. the beads were washed twice in binding buffer and eluted in 100 μL 2×-reducing Laemmli buffer with heating to 95° C. for 5 minutes. Eluates (20 μL) were resolved on 4-12% NuPAGE gels, transferred to 0.45 μm pore-sized nitrocellose and immunoblotted for detection of proMMP9, active MMP9, and other processed forms using mAb-L51/82 and pAb-1246 as described above for detection of MMP9 forms in synoviocyte and HFL-1 cell conditioned media.
Rats in the study reported in Tables 4 and 5 were sacrificed on Day 26 four hours after the AM dose. Ankles harvested from the right-hind-limbs were processed by the method described above. Pro and active MMP9 were abundantly present in ankles of SCW-induced vehicle-treated rats (FIGS. 3A and 3B, lanes 1-3).

A further assay concerns the target T2, proMMP9 (Homo sapiens, UniProt P14780).
T2 construct: endogenous in cells; host or cells: HFL-1 (ATCC CCL-153), TNFα and neutrophil elastase added
In words: Activation of proMMP9 by human fetal lung fibroblast (HFL-1) cultures (Western blot). The class given is cell-based. To be noted: for Signal of 80 kD band (INT*mm^2): pAb-1246. The protocol: Compound-α was assessed additionally for ability to block the maturation of proMMP9 to active MMP9 in cultures of human fetal lung fibroblasts (HFL-1, American Type Culture Collection #CCL-153). Unlike rat synoviocytes, HFL-1 cells were unable to process proMMP9 to the active form without addition of neutrophil elastase. […] Rather, the function of elastase in this assay may be to inactivate tissue inhibitors of matrix metalloproteinases (TIMPs) that repress endogenous pathways of MMP9 activation (Am J Respir Crit Care Med; 1999; 159:1138-46).
HLF-1 were maintained in monolayer culture in DMEM with 10% FCS and were used between passage numbers 5-15. HLF-1 were embedded in collagen gels as described for rat SCW synoviocytes (vida supra). Half mL gels containing 0.4 million cells were dislodged into wells of 12 well Costar plates containing 1 mL/well of DMEM adjusted to contain 0.05% BSA and 100 ng/mL human TNFα (R&D Systems Cat #210-TA/CF). After overnight culture (37° C. and 5% CO2) wells were adjusted to contain an additional 0.5 mL of DMEM containing 0.05% BSA and with or without 13.2 μM Compound-α (final concentration was 3.3 μM Compound-α). Next, cultures were adjusted to contain 30 nM human elastase (Innovative Research). The plates were cultured an additional 72 hrs, at which time MMP9 secreted into the conditioned media was bound to gelatin-sepharose and evaluated by Western blot analysis as described for the rat synoviocyte cultures (vida supra). mAb-51/82 detected three forms of MMP9 in HFL-1 cultures.
A second experiment was performed to determine if the 80 kD form was mature active MMP9 and to determine the potency of Compound-α as an inhibitor of MMP9 maturation in this assay. HFL-1 cells embedded in collagen gels were cultured as described above in the presence of TNFα overnight and the cultures were then adjusted to contain 30 nM elastase and graded concentrations of Compound-α for an additional 72 hrs at which time MMP9 secreted into the conditioned media was bound to gelatin-sepharose and evaluated by Western blot analysis for active MMP9 using pAb-1246 raised against the N-terminal neoepitope of active MMP9 (Table 5). In the absence of Compound-α, pAb-1246 readily detected MMP9 with an electrophoretic mobility of approximately 80 kD. […] Inhibition occurred over a dose range with an IC50 of approximately 0.3 μM Compound-α.

Where [1] appears, read: 3.3 μM, 30 nM elastase, final 72 hrs, mAb-L51/82.

T1 sequence (P50282 108-708): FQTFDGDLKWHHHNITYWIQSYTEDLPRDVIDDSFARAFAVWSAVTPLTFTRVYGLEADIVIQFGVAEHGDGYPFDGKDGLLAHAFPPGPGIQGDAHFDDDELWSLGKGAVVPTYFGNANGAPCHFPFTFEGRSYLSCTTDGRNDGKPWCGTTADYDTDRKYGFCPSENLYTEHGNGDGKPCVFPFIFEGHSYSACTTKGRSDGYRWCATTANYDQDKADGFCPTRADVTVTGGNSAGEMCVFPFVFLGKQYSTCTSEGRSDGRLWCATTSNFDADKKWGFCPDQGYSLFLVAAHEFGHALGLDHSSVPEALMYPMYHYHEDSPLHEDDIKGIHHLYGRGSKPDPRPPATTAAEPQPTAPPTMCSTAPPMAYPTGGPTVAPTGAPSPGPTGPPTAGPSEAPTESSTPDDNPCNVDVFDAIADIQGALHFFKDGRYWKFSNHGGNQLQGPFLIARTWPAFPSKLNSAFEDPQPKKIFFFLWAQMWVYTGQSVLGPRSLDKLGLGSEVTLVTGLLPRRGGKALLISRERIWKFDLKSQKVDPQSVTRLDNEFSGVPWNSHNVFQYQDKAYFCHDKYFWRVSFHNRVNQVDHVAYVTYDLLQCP
T2 sequence (P14780 20-707 limits assumed): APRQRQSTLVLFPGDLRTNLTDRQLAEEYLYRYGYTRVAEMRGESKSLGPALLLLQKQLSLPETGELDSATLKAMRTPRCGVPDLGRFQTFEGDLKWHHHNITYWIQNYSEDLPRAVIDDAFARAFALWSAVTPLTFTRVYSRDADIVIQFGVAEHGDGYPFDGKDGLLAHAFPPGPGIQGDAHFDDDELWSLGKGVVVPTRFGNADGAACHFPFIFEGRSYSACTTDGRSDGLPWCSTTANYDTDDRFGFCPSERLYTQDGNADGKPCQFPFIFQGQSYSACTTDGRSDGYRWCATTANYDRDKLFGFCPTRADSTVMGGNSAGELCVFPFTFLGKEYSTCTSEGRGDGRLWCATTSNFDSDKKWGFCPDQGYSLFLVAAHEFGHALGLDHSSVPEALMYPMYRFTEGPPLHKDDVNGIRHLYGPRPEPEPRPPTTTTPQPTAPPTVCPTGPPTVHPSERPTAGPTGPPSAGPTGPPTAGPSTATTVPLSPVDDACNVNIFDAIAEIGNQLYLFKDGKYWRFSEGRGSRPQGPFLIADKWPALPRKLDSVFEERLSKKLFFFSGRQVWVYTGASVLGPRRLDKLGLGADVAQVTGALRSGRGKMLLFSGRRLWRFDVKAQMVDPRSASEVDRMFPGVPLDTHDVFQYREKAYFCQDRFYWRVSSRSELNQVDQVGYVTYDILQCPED

`Cc1nc(C)c(-c2csc(Nc3cc(S(N)(=O)=O)ccc3OC(C)C)n2)s1` [Compound-α, 3-(2′,4′-Dimethyl-[4,5′]bithiazolyl-2-ylamino)-4-isopropoxy-benzenesulfonamide.HBr]: on MMP9, the “Abundance of proMMP9 in ankles” value is listed as “did not reduce the abundance of proMMP9”. On MMP9 (listed as Compound a), the “Abundance of proMMP9 in ankles” value is “did not reduce the abundance of proMMP-9”. For the same compound, the “Active 80 kD form of MMP9 in ankles” value at MMP9 (pAb-1246 and mAb-L51/82, FIG. 3) is listed as “notable reduction in the active 80 kD form of MMP9”. The “Signal of 80 kD band (INT*mm^2)” value at proMMP9 (0.12 μM, 30 nM elastase, final 72 hrs) is recorded as 168211 INT*mm^2. Also, the “Signal of 80 kD band (INT*mm^2)” value at proMMP9 (0.37 μM, 30 nM elastase, final 72 hrs) came to 45996 INT*mm^2. At proMMP9 (1.1 μM, 30 nM elastase, final 72 hrs), the “Signal of 80 kD band (INT*mm^2)” value stood at 1747 INT*mm^2. Moreover, on proMMP9 (setting [1]), the “Percent of total signal, 80 kD” value was determined as 7%; the “Percent of total signal, 86 kD” value is recorded as 47%; the “Percent of total signal, 100 kD” value is recorded as 46%; the “Signal (INT*mm^2), 80 kD” value is reported as 6092 INT*mm^2. For the same compound, at proMMP9 (setting [1]), the “Signal (INT*mm^2), 86 kD” value amounted to 43147 INT*mm^2; the “Signal (INT*mm^2), 100 kD” value came out at 42107 INT*mm^2; the “Signal (INT*mm^2), Total” value was 91346 INT*mm^2. In addition, the “Signal of 80 kD band (INT*mm^2)” value on proMMP9 (3.3 μM, 30 nM elastase, final 72 hrs) came to 152 INT*mm^2. For the same compound, the “Processing of MMP9 forms by HFL-1 cells” value on proMMP9 (3.3 μM, mAb-L51/82) is “the formation of the 80 kD form was suppressed”. Further, at proMMP9 (10 μM, 30 nM elastase, final 72 hrs), the “Signal of 80 kD band (INT*mm^2)” value was found to be 0 INT*mm^2.

For the origin of these results see patent US20120129897A1, “BIS HETEROARYL INHIBITORS OF PRO-MATRIX METALLOPROTEINASE ACTIVATION” (priority 2010, published 2012).
